# According to patent EP0971601B1, “DECAFFEINATED MATE EXTRACTS AND THE USE THEREOF” (Sensient Flavors Italy S.R.L., priority 1997, dated 1998):
# Key:
# [1] = DPPH stable free radical quenching (loss in absorbance at 517 nm); format: biochemical; details: methanol solution of DPPH, absorbance 517 nm
# From the text: The activity of the extract in quenching the stable free radical DPPH through hydrogen transferring reaction, has been tested by monitoring the loss in absorbance at 517 nm of a methanol solution of DPPH [18] in the presence and the absence of increasing concentrations of Maté extract.
# rat erythrocytes (RBC) = test: UVB-induced lysis of erythrocytes (turbidimetric determination at 710 nm); format: cell-based; details: Erythrocyte, light or radiation study, 1.5 h, determined at 90 min irradiation, read-out: IC50, UVB-induced hemolysis
# Experimental: • Fig.1 - HPLC profile of the decaffeinated aqueous extract of Maté. Chromatographic conditions: reverse phase column LC-18; mobile phase: linear gradient of 100% A (0.0127 N H3PO4/CH3CN/Ethylacetate 96.5'/3/0.5) to 30% B (CH3CN) in 30 min; flow rate: 1 ml/min; detection: UV-DAD 330 nm. […] Experimental conditions: Finnigan LCQ mass spectrometer; reverse phase column LC-18; mobile phase: linear gradient of 100% A (95% ammonium formiate / 5% CH3CN, pH 4.5 with HCOOH) to 30% B (95% CH3CN / 5% ammonium formiate, pH 4.5 with HCOOH) in 30 min; flow rate: 1 ml/min; negative ion detection. […] Values are the means ± S.D. of 5 determinations. • Fig.10 - Protective effect of decaffeinated aqueous extract of Maté on UVB-induced hemolysis. Red blood cells (0.2% suspensions) were exposed to UVB radiation for 210 min in the absence and in presence of different concentrations of decaffeinated aqueous extract of Maté; percentage hemolysis was turbidimetrically determined at 710 nm at 30 min intervals. Values are the means ± S.D. of 5 determinations.
# Finally we evaluated in a cellular model (0.2% erythrocyte suspensions) the protective effect of the decaffeinated aqueous extract of Matè on the peroxidative stress induced by UVB exposure (0.4-4 J/cm^2), and monitoring the time-course of hemolysis (turbidimetric determination at 710 nm) at 30 min intervals.
"IC50, quenching DPPH radical [1] [µg/mL]",Compound,IC50 (rat erythrocytes (RBC)) [µg/mL]
19,O=C1O[C@H]([C@@H](O)CO)C(O)=C1O [ascorbic acid],–
19,vitamin E,–
–,"O=C(/C=C/c1ccc(O)c(O)c1)O[C@@H]1C[C@](O)(C(=O)O)C[C@@H](O)[C@H]1O [Chlorogenic acid, 3-O-caffeoyl quinic acid]",3.2
